# Data published in ChEMBL document CHEMBL5370654, “Discovery of 3-Phenyl Indazole-Based Novel Chemokine-like Receptor 1 Antagonists for the Treatment of Psoriasis” (J Med Chem, 2023).
# Calls of active or inactive are those of the source. The rule behind the calls is not given here.
# Experiments:
# Chemerin-like receptor 1 [1] = target: T1, Chemerin-like receptor 1 (Homo sapiens, UniProt Q99788); experiment: Antagonist activity at human CMKLR1
# T1 sequence (Q99788 whole entry): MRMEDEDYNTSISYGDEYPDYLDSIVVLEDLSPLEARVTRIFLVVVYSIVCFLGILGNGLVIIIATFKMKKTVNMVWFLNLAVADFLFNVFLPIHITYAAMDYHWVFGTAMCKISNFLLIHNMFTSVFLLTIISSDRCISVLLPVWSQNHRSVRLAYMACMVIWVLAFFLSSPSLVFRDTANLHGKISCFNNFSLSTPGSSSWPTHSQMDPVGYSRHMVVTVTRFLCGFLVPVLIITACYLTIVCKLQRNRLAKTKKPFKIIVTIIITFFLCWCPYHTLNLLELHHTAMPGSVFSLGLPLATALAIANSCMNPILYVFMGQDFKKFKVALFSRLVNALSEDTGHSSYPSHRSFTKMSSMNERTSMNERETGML
# Chemerin-like receptor 1 [2] = target: T1, Chemerin-like receptor 1; experiment: Antagonist activity at human CMKLR1 expressed in CHO-K1 cells co-expressing Galpha-16 assessed as change in intracellular calcium concentration incubated for 30 mins in presence of chemerin-9 by FLIPR calcium 5 assay; type: functional, cell-based
# [3] = Tmax in C57BL6 mouse at 30 mg/kg, po measured upto 24 hrs by LC-MS/MS analysis; type: ADME, organism-based; details: in vivo
# [4] = AUClast in C57BL6 mouse at 30 mg/kg, po measured upto 24 hrs by LC-MS/MS analysis; type: ADME, organism-based; design: dose 30 mg/kg, time < 24 hrs, route po; details: in vivo
# [5] = Cmax in C57BL6 mouse at 30 mg/kg, po measured upto 24 hrs by LC-MS/MS analysis; type: ADME, organism-based; design: dose 30 mg/kg, time < 24 hrs, route po; details: in vivo
# [6] = Toxicity in imiquimod-induced BALB/c mouse psoriasis model assessed as change in body weight at 30 mg/kg, po qd administered for 7 days; type: organism-based; details: in vivo, 168 h, time 7 day
# [7] = AUClast in C57BL6 mouse at 10 mg/kg, po measured upto 24 hrs by LC-MS/MS analysis; type: ADME, organism-based; design: dose 10 mg/kg, time < 24 hrs, route po; details: in vivo
# [8] = Cmax in C57BL6 mouse at 10 mg/kg, po measured upto 24 hrs by LC-MS/MS analysis; type: ADME, organism-based; design: dose 10 mg/kg, time < 24 hrs, route po; details: in vivo
# [9] = Tmax in C57BL6 mouse at 10 mg/kg, po measured upto 24 hrs by LC-MS/MS analysis; type: ADME, organism-based; details: in vivo
# Mus musculus = experiment: Antiinflammatory activity against imiquimod-induced BALB/c mouse psoriasis model assessed as reduction in epidermal proliferation in mouse back skin at 0.4 mg/kg, po qd administered for 7 days by hematoxylin and eosin staining based analysis; type: functional, organism-based; details: time 7.0 day
# [10] = Toxicity in imiquimod-induced BALB/c mouse psoriasis model assessed as change in body weight at 0.4 mg/kg, po qd administered for 7 days; type: organism-based; details: in vivo, 168 h, time 7 day
smiles,measurement,setting,value
CC(C)n1nc(-c2ccccc2)c2ccc(COc3ccc([C@@H](C)CC(=O)O)cc3)cc21,IC50,Chemerin-like receptor 1 [1],5750 nM
C[C@@H](CC(=O)O)c1ccc(OCc2ccc3c(-c4cc(Cl)c(O)c(Cl)c4)nn(C4CCCC4)c3c2)cc1,IC50,Chemerin-like receptor 1 [2],141 nM
C[C@@H](CC(=O)O)c1ccc(OCc2ccc3c(-c4ccc(O)c(O)c4)nn(C4CCCC4)c3c2)cc1,IC50,Chemerin-like receptor 1 [2],2090 nM
C[C@@H](CC(=O)O)c1ccc(OCc2ccc3c(-c4cc(F)c(CO)c(F)c4)nn(C4CCCC4)c3c2)cc1,IC50,Chemerin-like receptor 1 [2],53.7 nM
C[C@@H](CC(=O)O)c1ccc(OCc2cc(F)c3c(-c4cc(Cl)c(O)c(Cl)c4)nn(C4CCCC4)c3c2)cc1,IC50,Chemerin-like receptor 1 [2],19.1 nM
C[C@@H](CC(=O)O)c1ccc(OCc2cc(F)c3c(-c4cc(Cl)c(CO)c(Cl)c4)nn(C4CCCC4)c3c2)cc1,Tmax,[3],120 min
same,AUC(0-t) at 24 h,[4],64100 ng·h/mL
same,Cmax,[5],7900 ng/mL
same,Activity,[6],Non-Toxic
C[C@@H](CC(=O)O)c1ccc(OCc2ccc3c(-c4cc(Cl)c(O)cc4Cl)nn(C4CCCC4)c3c2)cc1,IC50,Chemerin-like receptor 1 [2],525 nM
C[C@@H](CC(=O)O)c1ccc(OCc2ccc3c(-c4ccc(O)c([N+](=O)[O-])c4)nn(C4CCCC4)c3c2)cc1,IC50,Chemerin-like receptor 1 [2],1700 nM
C[C@@H](CC(=O)O)c1ccc(OCc2ccc3c(-c4ccc(O)cc4Cl)nn(C4CCCC4)c3c2)cc1,IC50,Chemerin-like receptor 1 [2],676 nM
C[C@@H](CC(=O)O)c1ccc(OCc2ccc3c(-c4cc(F)c(O)cc4F)nn(C4CCCC4)c3c2)cc1,IC50,Chemerin-like receptor 1 [2],513 nM
CC(CC(=O)O)c1ccc(OCc2ccc3c(-c4ccc(Cl)cc4)nn(C4CCCC4)c3c2)cc1 (racemic),IC50,Chemerin-like receptor 1 [2],2290 nM
Cc1ccc(-c2nn(C3CCCC3)c3cc(COc4ccc(C(C)CC(=O)O)cc4)ccc23)cc1 (racemic),IC50,Chemerin-like receptor 1 [2],2340 nM
CC(CC(=O)O)c1ccc(OCc2ccc3c(-c4cc(Cl)c(CO)c(Cl)c4)nn(C4CCCC4)c3c2)cc1 (racemic),AUC(0-t) at 24 h,[7],11700 ng·h/mL
same,Cmax,[8],2600 ng/mL
same,Tmax,[9],30 min
COc1ccc(-c2nn(C3CCCC3)c3cc(COc4ccc(C(C)CC(=O)O)cc4)ccc23)cc1 (racemic),IC50,Chemerin-like receptor 1 [2],1100 nM
CC(CC(=O)O)c1ccc(OCc2ccc3c(-c4cccc(O)c4)nn(C4CCCC4)c3c2)cc1 (racemic),IC50,Chemerin-like receptor 1 [2],2570 nM
CC(CC(=O)O)c1ccc(OCc2ccc3c(-c4cc(Cl)c(O)c(Cl)c4)nn(C4CCCC4)c3c2)cc1 (racemic),AUC(0-t) at 24 h,[7],823 ng·h/mL
same,Cmax,[8],225 ng/mL
same,IC50,Chemerin-like receptor 1 [2],309 nM
same,Tmax,[9],30 min
CN(Cc1cnc2nc(N)nc(N)c2n1)c1ccc(C(=O)N[C@@H](CCC(=O)O)C(=O)O)cc1 [METHOTREXATE],Activity,Mus musculus,Active
same,Activity,[10],Non-Toxic
CC[C@@H](O)/C=C/C=C\C[C@@H](O)/C=C/C=C/C=C\[C@@H](O)CCCC(=O)O [RESOLVIN E1],EC50,Chemerin-like receptor 1 [1],1 nM
